Measured values taken from the OPERA property sets (Mansouri et al. 2018).
Peptide text beside a SMILES is read from it.

Settings: not given

| SMILES | logP |
| --- | --- |
| CNC(=O)NC | -0.49 |
| CC1(C)N=C(N)N=C(N)N1c1ccc(F)cc1 | 0.37 |
| O=c1oc2ccccc2c(O)c1Cc1c(O)c2ccccc2oc1=O | 2.07 |
| C=C(C)C(=O)O | 0.93 |
| CCCC(CC(C)=O)C(=O)O (stereo not drawn) | 1.31 |
| CC1NC(=O)C(CC(=O)NC(Cc2c[nH]c3ccccc23)C(=O)NC(Cc2ccccc2)C(=O)N(C)Cc2ccccc2)NC1=O (stereo not drawn) | 3.18 |
| CN(O)N=Nc1ccc(C(N)=O)cc1 | -0.22 |
| Cc1cc(O)ccc1Cl | 3.1 |
| N#Cc1cccc(C=O)c1 | 1.18 |
| N#Cc1ccc(NC=O)cc1 | 1.08 |
| Cc1c[nH]c(=O)[nH]c1=O | -0.62 |
| Cc1ccc2ccccc2n1 | 2.59 |
| CCCC(N)=O | -0.21 |
| S=C=Nc1ccc(-c2ccccc2)cc1 | 4.66 |
| CCCOc1cncc(C)n1 | 2.29 |
| COC(=O)CC(=O)OC | -0.05 |
| COc1ccccc1OCC(=O)O | 0.98 |
| CCC(C)C(NC(=O)C(CCCCN)NC(C)=O)C(=O)NC(Cc1ccccc1)C(N)=O (stereo not drawn) | 0.65 |
| O=[N+]([O-])c1ccc(Nc2ccccc2)cc1 | 3.74 |
| O=C(O)c1cc(Cl)ccc1[N+](=O)[O-] | 2.13 |
| CC(=O)N[C@@H](Cc1c[nH]c2ccccc12)C(=O)N[C@H](C(N)=O)C(C)C (Ac-Trp-Val-NH2) | 0.73 |
| CC(C)(O)C(Cl)(Cl)Cl | 2.03 |
| CN(C)CCOC(=O)c1ccccc1 | 2.06 |
| CCOc1ccccc1O | 1.68 |
| N#Cc1cccs1 | 1.27 |

| SMILES | logP |
| --- | --- |
| CCCCS | 2.28 |
| COc1c(O)c(C)c(C)c(O)c1OC | 1.6 |
| CC(Cl)C(=O)NC(CO)C(O)c1ccc([N+](=O)[O-])cc1 (stereo not drawn) | 0.98 |
| CC(C)OCCO | 0.05 |
| CN(C)CC(O)c1ccccc1 (stereo not drawn) | 1.54 |
| COP(=O)(OC)SCn1nnc2ccccc2c1=O | 0.78 |
| CN(C)C(=N)N(C)C | 0.41 |
| Oc1ccccc1I | 2.65 |
| CCCNc1nc(NCC)nc(SC(F)F)n1 | 3.8 |
| Cc1cccnc1 | 1.2 |
| FC1(F)C(F)(F)C(F)(F)C(F)(F)C(F)(F)C1(F)F | 2.91 |
| CCN(CC)C(C)C(=O)OCn1ncc2c(=O)[nH]cnc21 (stereo not drawn) | 0.72 |
| N=C(N)NS(=O)(=O)c1ccc(N)cc1 | -1.22 |
| NC(=O)CCCCc1cccnc1 | 0.4 |
| COc1cc(CCO)ccc1O | 0.47 |
| COc1cccc2cccnc12 | 1.84 |
| O=[N+]([O-])c1ncn(CC(O)CN2CC2)n1 (stereo not drawn) | -0.72 |
| NCc1ccco1 | 0.37 |
| C(=Cc1ccccn1)c1ccccn1 | 2.11 |
| N#Cc1ccc(C(=O)O)cc1 | 1.56 |
| CC(C)c1cccc(OCC(=O)O)c1 | 2.59 |
| Brc1ccsc1Br | 3.53 |
| C#CCN(CC#C)CC#C | 1.27 |
| c1ccc(-c2ncncn2)cc1 | 1.93 |
| CN(C)c1ccc(N=Nc2ccccc2)cc1 | 4.58 |

| SMILES | logP |
| --- | --- |
| O=C1CN=C(c2ccccc2)c2cc(Cl)ccc2N1CC1CC1 | 3.73 |
| CC12CC(O)C3C(CCC4(O)CC(O)CC(O)C34CO)C1(O)CCC2C1=CC(=O)OC1 (stereo not drawn) | -0.02 |
| CCCCOC(=O)N(C)SN(C)C(=O)Oc1cccc2c1OC(C)(C)C2 | 4.7 |
| OC(c1ccccc1)C(O)c1ccccc1 (stereo not drawn) | 1.91 |
| OCCOc1c(Br)cc(Br)cc1Br | 3.42 |
| Nc1nccs1 | 0.38 |
| O=C(O)c1cc(Br)ccc1O | 3.23 |
| Nc1ccc2cc3ccccc3nc2c1 | 2.77 |
| CN(C)C(N(C)C)=S(I)c1ccc(C(=O)O)cc1 (stereo not drawn) | -1.28 |
| COc1cccc(Cl)c1 | 2.98 |
| CCOc1cccc(OC(=O)NC)c1 | 1.75 |
| S=C=S | 1.94 |
| O=c1nn[nH]c2ccccc12 | 0.83 |
| OCC1CC1c1ccccc1 (stereo not drawn) | 1.95 |
| CN(C)CCN(C)S(=O)(=O)c1ccc(C(C)(C)[N+](=O)[O-])c([N+](=O)[O-])c1 | 1.42 |
| O=C(O)Cc1c(Cl)ccc(Cl)c1Cl | 3.2 |
| CC(=S)N(c1ccccc1)c1ccccc1 | 2.83 |
| FC(F)(F)Oc1ccccc1 | 3.17 |
| CCCCCC=O | 1.78 |
| CCOC(=O)C(C#N)=NNc1ccccc1Cl | 3.38 |
| O=C(O)c1ccc(O)cc1 | 1.58 |
| CC(C)(C(=O)O)C(=O)O | 0.39 |
| Oc1c(Br)cc(Br)cc1Br | 4.13 |
| N#CC(=Cc1ccccc1)C(N)=O | 1.56 |
| O=CNc1ccc(Cl)cc1 | 2.04 |

| SMILES | logP |
| --- | --- |
| NCCCN | -1.43 |
| C=CCOC(=O)c1ccccc1C(=O)OCC=C | 3.23 |
| Cn1cc2ccc([N+](=O)[O-])cc2n1 | 1.76 |
| O=NN(CC(F)(F)F)CC(F)(F)F | 2.15 |
| Clc1cccnc1Cl | 2.11 |
| O=[N+]([O-])c1ccc(C=NO)cc1 | 1.95 |
| Brc1cccnc1 | 1.6 |
| NCc1cccnc1 | -0.32 |
| CC(=O)NCc1ccccc1 | 0.95 |
| CCN(CC)c1ccccc1 | 3.31 |
| CN(C)C(N(C)C)=S(I)c1ccc(Cl)cc1[N+](=O)[O-] (stereo not drawn) | -0.09 |
| COc1ccccc1-c1nc(N)nc(N)n1 | 0.58 |
| CCCC[SiH](C)C | 3.57 |
| CNC(C)Cc1ccccc1 (stereo not drawn) | 2.07 |
| Cc1cc(C)c(N(C)C)c(C)c1 | 4.41 |
| CNC(=O)Nc1ccccc1 | 1.12 |
| O=C(O)c1c(Cl)cccc1Cl | 2.23 |
| CNC(=S)NNc1ccccc1 | 1.17 |
| O=[N+]([O-])c1ccc(Br)cc1 | 2.55 |
| NC(=O)Nc1cccc(OCC(=O)O)c1 | 0.26 |
| CCOC(=O)C(O)c1ccccc1 (stereo not drawn) | 1.53 |
| COC(=O)c1ccncc1 | 0.87 |
| CN1CCN(Cc2ccc(C(=O)OCn3ncc4c(=O)[nH]cnc43)cc2)CC1 | 1.47 |
| CCNC(=O)c1[nH]nc(C)c1[N+](=O)[O-] | 0.13 |
| COP(=S)(OC)Oc1ccc([N+](=O)[O-])c(Cl)c1 | 3.45 |

| SMILES | logP |
| --- | --- |
| O=C(O)COc1cccc(F)c1 | 1.48 |
| O=C(O)CNc1ccccc1 | 0.62 |
| CC(=O)Nc1ccc(F)cc1 | 1.47 |
| CCCC(C)C1(CC)C(=O)N=C(S)NC1=O (stereo not drawn) | 2.85 |
| CC(C)C[N+](=O)[O-] | 1.4 |
| CCc1cc(OC)c(CC(C)N)cc1OC (stereo not drawn) | 2.81 |
| COc1cc(OC)cc(C(=O)O)c1 | 2.19 |
| CCCCC(CC)COC(=O)n1cnc(CC(NC(=O)C2CCC(=O)N2)C(=O)N2CCCC2C(N)=O)c1 (stereo not drawn) | 1.82 |
| Cc1cc2[nH]c(=O)c(=O)[nH]c2cc1C | 1.34 |
| CNC(=O)Oc1cccc(Br)c1 | 2.25 |
| CC(=O)C(=Cc1ccccc1Cl)C(C)=O | 2.19 |
| CC(=O)Nc1cc(C)c(O)c(C)c1 | 1.11 |
| CCCCCC1(c2ccncc2)CCC(=O)NC1=O (stereo not drawn) | 2.26 |
| CCCOC1OC(CO)C(O)C(O)C1O (stereo not drawn) | -1.66 |
| NCCc1ccncc1 | -0.01 |
| COc1ccc(COC(=O)N(C)C)cc1 | 2.2 |
| N#Cc1ccc(S(N)(=O)=O)cc1 | 0.23 |
| CNC(=O)Oc1cccc(OC(C)C)c1 | 1.96 |
| CC1OC(OC2C(O)CC(OC3C(O)CC(OC4CCC5(C)C(CCC6C5CC(O)C5(C)C(C7=CC(=O)OC7)CCC65O)C4)OC3C)OC2C)CC(OC(=O)C2OC(O)CC(O)C2O)C1O (stereo not drawn) | -1.77 |
| CCCOc1cc(N)ccc1C(=O)O | 1.53 |
| Brc1ccoc1 | 2.18 |
| c1cc2nc[nH]c2cn1 | 0.18 |
| COc1ccc(OC(=O)N(C)C)cc1 | 1.53 |
| O=C(O)C1c2ccccc2-c2ccccc21 | 2.8 |
| OC1CCCCC1 | 1.23 |

| SMILES | logP |
| --- | --- |
| CCOC(=O)C=Cc1ccccc1 | 2.99 |
| CC(C)C(C)O (stereo not drawn) | 1.28 |
| c1ccc(Nc2ccc3ccccc3c2)cc1 | 4.38 |
| CC(C)c1ccc(OCC(=O)O)cc1 | 2.69 |
| O=C(O)c1ccc2c(c1)OCCOCCOCCOCCOCCO2 | -0.28 |
| CC(=O)Nc1ccc2[nH]c(C)cc2c1 | 1.21 |
| O=C(O)Cc1cccc(C(=O)O)c1 | 1.14 |
| c1ccc(-c2cccnc2)nc1 | 1.46 |
| Nc1cccc(F)c1 | 1.3 |
| CNC(=O)Oc1cc(C)c(Cl)cc1Cl | 3 |
| COc1ccccc1OC(=O)c1ccc(N)cc1O | 2.88 |
| CC(=O)Cc1ccccc1 | 1.44 |
| N[C@@H](CS)C(=O)O | -2.49 |
| CON(C)C(=O)Nc1ccc(N)cc1 | -0.16 |
| CCC1(C2=CCCCCC2)C(=O)NC(=O)NC1=O | 2.03 |
| CCn1nc2ccccc2n1 | 2.1 |
| CCNC(=O)c1ccco1 | 0.61 |
| S=C1CCCCN1 | 0.13 |
| CN(C1CCCCC1)C1CCCCC1 | 3.71 |
| O=C1CNC(=O)N1 | -1.69 |
| CCCCOCCO | 0.83 |
| O=C(O)c1ccc(O)c(O)c1 | 0.86 |

Same assay, conditions: pH 7.4

| SMILES | logD |
| --- | --- |
| O=C(O)CCCc1ccc(N(CCCl)CCCl)cc1 | 1.7 |
